Assays:
[1] = system: human TNFR-p55; experiment: Solid phase radioligand competition binding assay, E. coli lysates, TNFR-p55; conditions: for Dilution of E. coli Lysate for 50% Inhibition of 125I-TNFα Binding (ID50) TNFR-p55: 10-fold serial dilutions 10^-2 to 10^-7, < = inhibition but below 50% at 1:100, << = no measurable inhibition at 1:100; for ID50 TNFR-p55 / ID50 TNFR-p75: ratio = 1 no receptor selectivity, > 1 TNFR-p55 selectivity, < 1 TNFR-p75 selectivity
Experimental: (§1) After 20 min incubation at room temperature 50 μl of 1M MgCl2, 20 μl of 5 mg/ml DNaseI, 50 μl of 5M NaCl and 50 μl of 10% NP-40 were added and the mixture was further incubated at room temperature for 15 min. 0.5 ml of the lysate clarified by centrifugation at 13'000 rpm for 5 min was subjected to ammonium sulfate precipitation (25%-70% cut). The 70% ammonium sulfat pellet was dissolved in 0.2 ml PBS and analyzed by sodium dodecyl sulfate polyacrylamide gel electrophoresis (SDS-PAGE) to confirm presence and approximate amount of the recombinant proteins.
TNFα was labelled by the Iodogen method (Pierce Chemical Company) to a specific activity of about 10-30 μCi/μg. The volume was 100 μl/well and each lysate dilution was assayed in duplicate or triplicate. After three hours at room temperature the wells were thoroughly washed with PBS and counted in a γ-counter. The results are given in Table 2 for lysates comprising the muteins indicated therein.

[2] = system: human TNFR-p75; experiment: Solid phase radioligand competition binding assay, E. coli lysates, TNFR-p75; conditions: 10-fold serial dilutions 10^-2 to 10^-7, < = inhibition but below 50% at 1:100, << = no measurable inhibition at 1:100
Experimental: as §1, with “10 ml suspensions of E. coli cells transformed and induced as described in Examples I and II were centrifuged at 4'000 rpm for 10 min and resuspended in 0.9 ml of lysis buffer (10 mM Tris-HCl pH 8.0, 5 mM EDTA, 2 mM PMSF, 10 mM benzamidine, 200 units/ml aprotinine and 0.1 mg/ml lysozyme). After” for “After”
96 well microtiter plates were coated with recombinant human […] TNFR-p75-hγ3 and TNFR-p55-hγ3 fusion proteins (extracellular portion of the receptor fused to the Fc part of human IgG3) at a concentration of 0.3 μg/ml and 0.1 μg/ml, respectively, in phosphate buffered saline (PBS, 100 μl/well, overnight at 4° C.) [Loetscher, H. et al. J. Biol. Chem. 266, 18324-18329 (1991); Lesslauer, W. et al. Eur. J. Immunol. 21, 2883-2886 (1991)]. After blocking with blocking buffer (50 mM Tris pH 7.4, 140 mM NaCl, 5 mM EDTA, 0.02% NAN3, 1% defatted milk powder) the microtiter plate was washed with PBS and incubated in blocking buffer containing 0.1% defatted milk powder with 10 ng/ml human wild-type ^125 I-TNFα and various dilutions of E. coli lysates ranging from 10^-2 to 10^-7 (10-fold serial dilutions). TNFα was labelled by the Iodogen method (Pierce Chemical Company) to a specific activity of about 10-30 μCi/μg. The volume was 100 μl/well and each lysate dilution was assayed in duplicate or triplicate. After three hours at room temperature the wells were thoroughly washed with PBS and counted in a γ-counter. The results are given in Table 2 for lysates comprising the muteins indicated therein.

| Substance | Dilution of E. coli Lysate for 50% Inhibition of 125I-TNFα Binding (ID50) TNFR-p55 [1] | ID50 TNFR-p55 / ID50 TNFR-p75 [1] | Dilution of E. coli Lysate for 50% Inhibition of 125I-TNFα Binding (ID50) TNFR-p75 [2] |
| --- | --- | --- | --- |
| N19D: human TNFα mutein N19D | 5,000 fold | 1 | 5,000 fold |
| N34E: human TNFα mutein N34E | 330 fold | > 3.3 | < 100 fold |
| S86T: human TNFα mutein S86T | 10,000 fold | > 100 | < 100 fold |
| Y87T: human TNFα mutein Y87T | < 100 fold | 1 | < 100 fold |
| K65A: human TNFα mutein K65A | 20,000 fold | 0.6 | 33,330 fold |
| A145H: human TNFα mutein A145H | 330 fold | 0.2 | 1,670 fold |
| R31E-S86T: human TNFα mutein R31E-S86T | 2,000 fold | > 20 | < 100 fold |
| D143V: human TNFα mutein D143V | < 100 fold | < 1 | < 100 fold |
| N34G: human TNFα mutein N34G | 330 fold | > 3.3 | < 100 fold |
| R32W-S86T: human TNFα mutein R32W-S86T | 3,330 fold | > 33.3 | < 100 fold |
| N34R: human TNFα mutein N34R | < 100 fold | > 1 | < 100 fold |
| S99A: human TNFα mutein S99A | 6,670 fold | 1 | 6,670 fold |
| Y87E: human TNFα mutein Y87E | < 100 fold | > 1 | < 100 fold |
| Y87Q: human TNFα mutein Y87Q | < 100 fold | 1 | < 100 fold |
| F144G: human TNFα mutein F144G | 2,500 fold | 1.2 | 2,000 fold |
| N30T: human TNFα mutein N30T | 2,860 fold | 1.1 | 2,500 fold |
| D143V-A145S: human TNFα mutein D143V-A145S | < 100 fold | < 0.5 | 200 fold |
| A145T: human TNFα mutein A145T | 5,000 fold | 0.7 | 6,670 fold |

| Substance | Dilution of E. coli Lysate for 50% Inhibition of 125I-TNFα Binding (ID50) TNFR-p55 [1] | ID50 TNFR-p55 / ID50 TNFR-p75 [1] | Dilution of E. coli Lysate for 50% Inhibition of 125I-TNFα Binding (ID50) TNFR-p75 [2] |
| --- | --- | --- | --- |
| L29S-S86T: human TNFα mutein L29S-S86T | 200 fold | > 2 | < 100 fold |
| F144W: human TNFα mutein F144W | 400 fold | 2.2 | 180 fold |
| D143E: human TNFα mutein D143E | < 100 fold | < 0.3 | 330 fold |
| N34P: human TNFα mutein N34P | < 100 fold | > 1 | < 100 fold |
| Y87K: human TNFα mutein Y87K | < 100 fold | 1 | < 100 fold |
| L75W: human TNFα mutein L75W | 220 fold | 0.7 | 330 fold |
| Y87G: human TNFα mutein Y87G | < 100 fold | 1 | < 100 fold |
| Y87L: human TNFα mutein Y87L | < 100 fold | 1 | < 100 fold |
| A145D: human TNFα mutein A145D | 5,000 fold | 0.7 | 6,670 fold |
| Q67K: human TNFα mutein Q67K | 25,000 fold | 0.5 | 50,000 fold |
| A145V: human TNFα mutein A145V | 1,000 fold | 0.5 | 2,000 fold |
| F144R: human TNFα mutein F144R | 2,500 fold | 7.6 | 330 fold |
| L29S-R32W: human TNFα mutein L29S-R32W | 5,000 fold | > 50 | < 100 fold |
| E146R: human TNFα mutein E146R | 6,670 fold | > 67 | < 100 fold |
| A145Y: human TNFα mutein A145Y | 1,670 fold | 0.1 | 11,110 fold |
| Y87F: human TNFα mutein Y87F | 200 fold | > 2 | < 100 fold |
| N34M: human TNFα mutein N34M | < 100 fold | > 1 | < 100 fold |
| N34D: human TNFα mutein N34D | 250 fold | > 2.5 | < 100 fold |

Reference: patent US5597899A, “Tumor necrosis factor muteins” (Hoffmann-La Roche Inc., priority 1993, dated 1997)
